In patent US20190046481A1, “TRANSDERMAL FORMULATIONS FOR DELIVERY OF PROPIONIC AND ACETIC ACID NSAIDS, AND THEIR USE IN THE TREATMENT OF NSAID-RESPONSIVE DISEASES AND CONDITIONS” (DELIVRA INC., priority 2015, published 2019):
Where two headings read alike, the source gives them in different places.

Tests used:
in vivo [1] = conditions: dog
Source text: (§1) 12 dogs with radiographic evidence of osteoarthritis (OA) were utilized to compare the concentration of ibuprofen in both blood and synovial fluid following transdermal delivery of ibuprofen formulated in base formulation and oral delivery in capsules. The 12 dogs were randomly divided into two groups of six subjects; one group received the oral positive treatment control and the other group received the transdermal treatment. The treatment cycle consisted of six days twice daily followed by a period of seven days devoid of treatment. Blood and synovial fluid samples (from both stifles and shoulders) were collected on the last (sixth) day of drug application and on the last (seventh) day of the washout period.
(§2) Test article: 1.5% (w/w) ibuprofen in base formulation (4); ˜1 g gel per shoulder joint twice daily (i.e. 15 mg ibuprofen per shoulder joint twice daily). Control article: base formulation; ˜1 g gel per shoulder joint twice daily. Positive Control: 30 mg ibuprofen in capsule PO twice daily.
(§3) Whole blood and synovial fluid samples were collected from the dogs 60 mins post treatment on the 7th day, and additional samples were collected after a 7 day washout. Baseline synovial fluid was collected from untreated canine subjects. Synovial fluid was collected under sedation (medetomidine (0.01 mg/kg) and butorphenol (0.1 mg/kg) IV). The fluid was collected by arthrocentesis into the joint following surgical preparation of the area. Synovial fluid was collected from stifle or shoulder joints.

[2] = for Serum drug concentration: dog, in vivo
Source text: as §1, §2, §3

in vivo [3] = conditions: for concentration at 7 days / Synovial Fluid drug concentration: dog, in vivo
Source text: Baseline synovial fluid was collected from untreated canine subjects. […] Synovial fluid was collected from stifle or shoulder joints.
Error bars depicted standard error of the mean.

[4] = tested on: aged Beagle dogs with radiographic evidence of osteoarthritis; experiment: Modified canine brief pain inventory questionnaire in aged dogs with osteoarthritis; format: in vivo; conditions: test day 5; for cumulative pain score compared to baseline: about 1.5 hours after administration
Method: This study used a blinded parallel group design with a total of eighteen (18) aged Beagle dogs greater than six years of age with radiographic evidence of osteoarthritis. The dogs were randomized to three groups of six subjects balanced on baseline pain levels determined using a modified canine brief pain inventory questionnaire in which a technician evaluated levels of pain and functional impairment in a standardized obstacle test over two baseline days. […] Dogs were tested on the modified canine brief pain inventory questionnaire daily over 7 days approximately 1.5 hours following administration of their respective treatments. Over the subsequent five test days, the same treatment doses were administered twice daily (i.e., doubling the daily dose), except that a loading dose was administered in the morning of the first day, which consisted of twice the daily dose level used initially (i.e., triple initial dose on the first day). The technicians assessing pain and function with the questionnaire were blinded to treatment conditions. Twice daily observations were conducted for the duration of the study.
Transdermal and oral naproxen were evaluated compared to a negative control as described in the Study Design. […] Questionnaire testing occurred approximately 1.5 hours following the morning dose administration of the test compounds. The two most affected joints of each subject were shaved prior to the first day of drug administration in all treatment groups.
Subjects were assessed on a pain questionnaire once daily on test days. […] Specifically, the ability of each dog to walk, trot, gallop, rear, jump over a low obstacle, climb and descend stairs, jump down from a perch and general activity was evaluated in addition to a subjective evaluation of pain during evaluation of each function. […]
The data consisted of whole number scored for 13 questions assessing measures of both pain (0-2) and functional impairment (0-4), as well as an overall pain and function question (0-4). A cumulative pain and functional impairment score was calculated from all […] for both the pain and functional impairment measures on a daily basis as applicable. […] Subsequently, difference from the baseline scores were calculated for the fifth test day at each dose and subjected to a similar RMANOVA analysis. […]
The dogs were randomized to three groups of six subjects based on mean baseline pain levels determined using a modified canine brief pain inventory questionnaire over two baseline days. […] Pain was evaluated using the pain questionnaire, which was administered approximately 1.5 hours following administration of their respective treatments. […] Data from the fifth treatment day at each dose compared to baseline was statistically evaluated.

[5] = Naproxen quantification in canine sera (LC-MS/MS); format: in vivo, Beagle dogs; conditions: both sexes, Beagle, dog, serum, oral, mean+/−SEM
Method: A 1 mg/mL stock solution of d3-naproxen was prepared in dimethyl sulfoxide. […] A solution of 200 ng/mL of d3-naproxen was prepared by adding 4 μL of 50 μg/mL solution of d3-naproxen to 996 μL methanol/water (70:30) (stock solution B).
Isocratic chromatographic separation was performed on a Zorbax Eclipse XDB-C18 column (150×4.6 mm I.D., 5 μm particle size, Agilent, Santa Clara, Calif., USA, SN USKH095544) with a XDB-C18 guard column (12.5×4.6 mm I.D., μm particle size, Agilent, Santa Clara, Calif., USA, SN USLE034730) using a mobile phase of acetonitrile/0.02 M NH4OAc (pH=4.00) (70:30) at a flow rate of 0.500 mL/min for 6 min. […] There was a post time of 0.10 min. The column temperature was 40° C. and the autosampler temperature was maintained at 4° C. The sample injection volume was 10 μL. A 4000 Q trap from AB Sciex Instruments equipped with an electrospray ionization (ES1) was used in the negative ion mode with multiple reaction monitoring (MRM) for the quantitative analysis. Nitrogen was used as the collision gas and the curtain gas. […] Analytical data were acquired and quantification processing was performed by using Analyst software.
Six aged Beagle dogs (>6 years) of both sexes with quantified radiographic evidence of osteoarthritis were used for the study. […]

[6] = Dose 2 (high dose, twice daily)

concentration at 7 days (in vivo [1]) [ng/mL] | concentration at 7 days (in vivo [1]; po) [ng/mL] | Serum drug concentration ([2]; 60 min) | Serum drug concentration ([2]; 7 days) | Serum drug concentration ([2]; po, 60 min) | Serum drug concentration ([2]; po, 7 days) | reduction of circulating drug by a one week washout period ([2]; serum, oral or transdermal) [%] | concentration at 7 days (in vivo [3]) [ng/mL] | Synovial Fluid drug concentration (in vivo [3]; 60 min) | Synovial Fluid drug concentration (in vivo [3]; 7 days) | concentration at 7 days (in vivo [3]; po) [ng/mL] | Synovial Fluid drug concentration (in vivo [3]; po, 60 min) | Synovial Fluid drug concentration (in vivo [3]; po, 7 days) | reduction of drug by a one week washout period (in vivo [3]; synovial fluid, oral or transdermal) [%] | concentration at 60 min ([5]; capsule PO once daily for seven days, 60 minutes post administration) [µg/mL] | concentration at 7 days ([5]; seven day washout) [ng/mL] | Structure (SMILES) | cumulative pain score difference from mean baseline compared to negative control ([4]; Dose 1 (low dose, once daily)) | cumulative pain score compared to baseline ([4]; Dose 1 (low dose, once daily)) | cumulative pain score difference from mean baseline compared to negative control [4, 6] | cumulative pain score compared to baseline [4, 6]
58.5 | 8.5 | 2,904 (±1,212) ng/mL | 59 (±38)^□ ng/mL | 15,420 (±3,450) ng/mL | 9 (±4)^□ ng/mL | > 95 | 58.5 | 1,711 (±828) ng/mL | 31 (±21)^□ ng/mL | 8.5 | 2,065 (±1,070) ng/mL | 5 (±3)^□ ng/mL | > 95 | – | – | CC(C)Cc1ccc(C(C)C(=O)O)cc1 (centres unmarked) [Ibuprofen] | – | – | – | –
– | – | – | – | – | – | – | – | – | – | – | – | – | – | 102 | 16200 | COc1ccc2cc([C@H](C)C(=O)O)ccc2c1 [oral naproxen, Naproxen] | reduced pain at only the low dose | significant decrease from baseline | reduced pain at only the low dose | reduced measures of pain at only the low dose
